# Data from US7671045B2, “17-phosphorous steroid derivatives useful as progesterone receptor modulators” (Janssen Pharmaceutica N.V., priority 2006, dated 2010).
# Read-outs that look alike come from different tables or passages of the source.
# Columns and labels:
# [1] = test system: A549 Human lung carcinoma cells; assay: Transient transfection and Steady Glo luciferase assay in A549 cells with dexamethasone challenge; assay type: cell-based
# Protocol: Transient Transfection and Steady Glo Luciferase Assay
# A549 Human lung carcinoma cells were grown in F-12K Nutrient Mixture containing 10% (v/v) fetal bovine serum (FBS; Invitrogen), 2 mM glutamine and 0.15% […] (Invitrogen)
# A549 cells were split 1 to 3 in 175 cm tissue culture flask. The cells were incubated at 37° C. in CO2 incubator until the cells were 95% confluent (typically 24-30 hours).
# The following solutions were prepared in sterile tubes: (a) Solution A: 1.5 μg/ml of DNA in 8.5 ml OPTI-MEM I Reduced Serum Medium. (GIBCO cat# 31985) and (b) Solution B: 6 μl/ml of DMRIE-C Reagent into […] OPTI-MEM I. The two solutions were combined and mixed gently, then incubated at room temperature for 40 minutes.
# The A549 cells prepared above were washed with […] of OPTI-MEM I. The medium was removed and 17 ml of the lipid-DNA complex solution was overlayed onto cells. The cells ere then incubated for 16 h at 37° C. in CO2 incubator. The DNA-containing medium was removed and 30 ml of growth medium was added. (5% Charcoal treated FBS) After 5-6 h, the cells were seeded in a 96 well plate and the cells incubated overnight at 37° C. in CO2 incubator.
# To each well was then added 5 μl of test compounds and the cells incubated at 37° C. for 10 min. 5 μL of dexamathasone (CAS [50-02-2]), a glucocorticoid agonist, solution was then added to each well for challenger and the cells incubated at 37° C. in CO2 incubator for 24 h. 100 μl of Luc-assay buffer was then added into each cell well and the cells incubated for 30 min at room temperature. A 150 μL sample from each well was then transferred into a DYNEX Microlitel plate and read on Top-counter.
# [2] = test system: T47D human breast cancer cells; assay: Alkaline phosphatase assay in human breast cancer cell line T47D; assay type: cell-based
# Protocol: Alkaline Phosphatase Assay in Human Breast Cancer Cell Line T47D
# T47D human breast cancer cells were grown in RPMI medium without phenol red (Invitrogen) containing 10% (v/v) heat-inactivated fetal bovine serum (FBS; Hyclone), 1% (v/v) penicillin-streptomycin (Invitrogen), 1% (w/v) glutamine (Invitrogen), and […] insulin (Sigma). Incubation conditions were 37° C. in a humidified 5% (v/v) carbon dioxide environment.
# The cells were plated in 96-well tissue culture plates at 10,000 cells per well in assay medium [RPMI medium without phenol red (Invitrogen) containing 5% (v/v) charcoal-treated FBS (Hyclone) and 1% (v/v) penicillin-streptomycin (Invitrogen)]. Two days later, the medium was decanted and test compound or control were added at a final concentration of 0.1% (v/v) dimethyl sulfoxide in fresh assay medium. Twenty-four hours later, an alkaline phosphatase assay was performed using a SEAP kit (BD Biosciences Clontech, Palo Alto, Calif.). Briefly, the medium was decanted and the cells were fixed for 30 minutes at room temperature with 5% (v/v) formalin (Sigma). The cells were washed once with room temperature Hank's buffered saline solution (Invitrogen). Equal volumes (0.05 mL) of 1× Dilution Buffer, Assay Buffer and 1:20 substrate/enhancer mixture were then added. After 1 hour incubation at room temperature in the dark, the lysate was transferred to a white 96-well plate (Dynex) and luminescence was read using a LuminoSkan Ascent (Thermo Electron, Woburn, Mass.).
# [3] = transfected A549 cells, luciferase readout, challenged with dexamethasone (glucocorticoid agonist), 24 h, read-out: A549 IC50
# [4] = T47D cells, alkaline phosphatase readout, 24 h with test compound, read-out: T47D IC50
# [5] = A549, 24 h, read-out: A549 IC50 (nM)
# [6] = T47D, 24 h, read-out: T47D IC50 (nM)
Compound,"IC50 [1, 3] [nM]","IC50 [2, 4] [nM]","IC50 [1, 5] [nM]","IC50 [2, 6] [nM]"
CN(C)c1ccc([C@H]2C[C@@]3(C)[C@@H](CC[C@@]3(O)C#CP(=O)(c3ccccc3)c3ccccc3)[C@@H]3CCC4=CC(=O)CCC4=C32)cc1 [Compound 103],41.6,1.57,–,–
CN(C)c1ccc([C@H]2C[C@@]3(C)[C@@H](CC[C@@]3(O)C#CP(=O)(N3CCOC3=O)N3OCCC3=O)[C@@H]3CCC4=CC(=O)CCC4=C32)cc1 (stereo partly drawn) [Compound 104],64,7.25,–,–
COP(=S)(C#C[C@]1(O)CC[C@H]2[C@@H]3CCC4=CC(=O)CCC4=C3[C@@H](c3ccc(N(C)C)cc3)C[C@@]21C)OC [Compound 105],–,–,55.8,1.44
CN(C)c1ccc([C@H]2C[C@@]3(C)[C@@H](CC[C@@]3(O)C#CP(=O)(N(C)C)N(C)C)[C@@H]3CCC4=CC(=O)CCC4=C32)cc1 [Compound 106],121,7.53,–,–
CCOP(=O)(C#C[C@]1(O)CC[C@H]2[C@@H]3CCC4=CC(=O)CCC4=C3[C@@H](c3ccc(SC)cc3)C[C@@]21C)OCC [Compound 107],–,–,454,4.75
CCOP(=O)(C#C[C@]1(O)CC[C@H]2[C@@H]3CCC4=CC(=O)CCC4=C3[C@@H](c3ccc(OC)cc3)C[C@@]21C)OCC [Compound 108],–,–,72.2,6.9
